Experimental data: ChEMBL document CHEMBL3792325, “Two novel phenanthraquinones with anti-cancer activity isolated from Bletilla striata” (Bioorg Med Chem Lett, 2016)
In brackets after ≈: the same amount, converted by molar mass.

Columns and labels:
A549 [1] = assay: Effect on cell cycle distribution in human A549 cells assessed as accumulation at G1 phase at 20 ug/ml after 24 hrs by propidium iodide staining based flow cytometry method (reference value: 53.24%); type: functional
A549 [2] = assay: Induction of ROS generation in human A549 cells at 20 ug/ml after 24 hrs by FACS-flow cytometry method (reference value: 20.51); type: functional
HUVEC = assay: Antiproliferative activity against human HUVEC cells assessed as growth inhibition after 48 hrs by MTT assay; type: cell-based
A549 [3] = assay: Effect on cell cycle distribution in human A549 cells assessed as accumulation at […] phase at 20 ug/ml after 24 hrs by propidium iodide staining based flow cytometry method (reference value: 1.96%); type: functional
HT-29 = assay: Antiproliferative activity against human HT-29 cells assessed as growth inhibition after 48 hrs by MTT assay; type: functional, cell-based; settings: HT-29, 48 h
A549 [4] = assay: Antiproliferative activity against human A549 cells assessed as growth inhibition after 48 hrs by MTT assay; type: functional, cell-based; settings: A549, 48 h
A549 [5] = assay: Effect on cell cycle distribution in human A549 cells assessed as accumulation at G2 phase at 20 ug/ml after 24 hrs by propidium iodide staining based flow cytometry method (reference value: 8%); type: functional
A549 [6] = assay: Induction of ROS generation in human A549 cells assessed as fold change at 20 ug/ml after 24 hrs by FACS-flow cytometry method relative to control; type: functional
MCF7 = assay: Antiproliferative activity against human MCF7 cells assessed as growth inhibition after 48 hrs by MTT assay; type: functional, cell-based; settings: MCF7, 48 h
A549 [7] = assay: Effect on cell cycle distribution in human A549 cells assessed as accumulation at S phase at 20 ug/ml after 24 hrs by propidium iodide staining based flow cytometry method (reference value: 38.76%); type: functional

SMILES | Activity (A549 [1]) | Flu intensity (A549 [2]) | IC50 (HUVEC) | Activity (A549 [3]) | IC50 (HT-29) | IC50 (A549 [4]) | Activity (A549 [5]) | fold change (FC) (A549 [6]) | IC50 (MCF7) | Activity (A549 [7])
COC1=Cc2ccc3cc(O)ccc3c2C(=O)C1=O | 63.22% | 136 | 48.3 µg/mL (≈ 190 µM) | 2% | 25 µg/mL (≈ 98.4 µM) | 19.7 µg/mL (≈ 77.6 µM) | 6.47% | 6 | 18.5 µg/mL (≈ 72.7 µM) | 30.31%
COC1=C(c2c(O)ccc3c2ccc2cc(OC)c(O)c(OC)c23)c2ccc3cc(O)ccc3c2C(=O)C1=O | 69.4% | 256.68 | 33.5 µg/mL (≈ 64.1 µM) | 1.95% | 22.7 µg/mL (≈ 43.4 µM) | 22.6 µg/mL (≈ 43.3 µM) | 8% | 10 | 12.6 µg/mL (≈ 24.2 µM) | 22.6%
COc1cc2ccc3c(OC)c(O)ccc3c2c(OC)c1O | – | – | > 100 µg/mL | – | > 100 µg/mL | > 100 µg/mL | – | – | > 100 µg/mL | –
COc1cc(O)c2c(c1)C(=O)c1cc(C)cc(O)c1C2=O [PHYSCION] | – | – | > 100 µg/mL | – | > 100 µg/mL | > 100 µg/mL | – | – | > 100 µg/mL | –
Cc1ccc2c(c1)C(=O)c1ccccc1C2=O [TECTOQUINONE] | – | – | > 100 µg/mL | – | > 100 µg/mL | > 100 µg/mL | – | – | > 100 µg/mL | –
COc1cc(C(=O)O)ccc1O [VANILLIC ACID] | – | – | > 100 µg/mL | – | > 100 µg/mL | > 100 µg/mL | – | – | > 100 µg/mL | –
